According to patent publication EP3184514A1, “AUTOPHAGY INHIBITORS” (Deutsches Krebsforschungszentrum, priority 2015, dated 2017):

Tests used:
Assay in all cases: MTT cell viability assay
Assay type in all cases: cell-based
PANC1 = conditions: 72 and 96 hours
Experimental: (§1) The MTT assay is a colorimetric assay for assessing cell viability. NAD(P)H-dependent cellular oxidoreductase enzymes in metabolic active cells reduce the tetrazolium dye MTT 3-(4,5-dimethylthiazol-2-yl)-2,5-diphenyltetrazolium bromide to its insoluble purple formazan. All cell types were seeded in 96 well plates and left over night for attachment. Next day, cells were treated with 100 µM compound I-1 for 24, 48, 72, and 96 hours. For controls, 1 µM staurosporine and 100 nM BafA1 were used. The assay was performed according to manufacturer's instructions and the absorbance of the formazan product was measured at 595 nm.

HCT116 = conditions: 72 and 96 hours
Experimental: as §1

A549 = test system: A549
Experimental: as §1

Brc1ccc(CSC2=NCN(Cc3cccnc3)CN2)cc1 [Compound I-1, 6-((4-bromobenzyl)thio)-3-(pyridin-3-ylmethyl)-1,2,3,4-tetrahydro-1,3,5-triazine]
reduced cell viability (PANC1): approximately 50% | cell survival (HCT116): almost no cell survival | reduced cell viability (A549; 72 and 96 hours): approximately 50% | cell viability (A549; 48 hours): unaffected
